# Measured values: PubChem BioAssay AID2743 (NMMLSC, 2010)
# The source made the active and inactive calls.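 How the source made its calls: active means fitted half-maximal concentration for change in GFP expression of 33 µM or less; inactive means the rest.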
# Assay: concentration-dependent AGP1-GFP change, TOR pathway – cell-based, flow cytometry, S. cerevisiae, MLPCN hits, dose response (AID 2743)
# Settings: S. cerevisiae AGP1-GFP strain, flow cytometry GFP, 3 h; at 33 µM (top of the series)
row,Structure (SMILES),GFP fluorescence (kMESF)
1,Cc1ccc(/C=c2\sc3nc(-c4cccs4)nn3c2=O)o1,42.1 kMESF (inactive)
2,CC(=O)[C@]1(O)Cc2c(O)c3c(c(O)c2[C@@H](O[C@H]2C[C@H](N)[C@H](O)[C@H](C)O2)C1)C(=O)c1ccccc1C3=O,33.4 kMESF (inactive)
3,O=C(NNC(=S)NC(=O)C12CC3CC(CC(C3)C1)C2)c1ccncc1,33.2 kMESF (inactive)
4,Cc1cc(C(=O)Nc2nc(-c3ccccn3)cs2)ccc1[N+](=O)[O-],44.4 kMESF (inactive)
5,O=C(c1ccc(Cl)c([N+](=O)[O-])c1)N1CCN(c2ccccc2)CC1,62.6 kMESF (inactive)
6,Cc1[nH][nH]c(=O)c1C(c1ccc(-c2ccc(Cl)c(Cl)c2)o1)c1c(C)[nH][nH]c1=O,43.7 kMESF (inactive)
7,CC(=O)CSc1ncnc2c1cnn2-c1ccccc1,38.5 kMESF (inactive)
8,O=C(Nc1nnc(-c2ccc(F)cc2)o1)c1cccc([N+](=O)[O-])c1,44.5 kMESF (inactive)
9,O=C(COc1ccccc1)NNC(=S)NC(=O)c1ccccc1,42.7 kMESF (inactive)
10,N#Cc1cc([N+](=O)[O-])c(-n2nnc3ccccc32)c([N+](=O)[O-])c1,41.5 kMESF (inactive)
11,Cc1ccc(/C=C2\SC(=S)N(Cc3ccccc3)C2=O)o1,38.4 kMESF (inactive)
12,Oc1c(I)cc(Cl)c2cccnc12,25 kMESF (inactive)
13,COc1ccc(N/N=C(\C#N)C(N)=O)cc1,52.4 kMESF (inactive)
14,COc1ccc(N2C(=O)C(Cl)=C(NCc3ccccc3)C2=O)cc1,40.6 kMESF (inactive)
15,Cc1ccc(C(=O)Oc2oc(-c3ccccc3)nc2C=Nc2ccc(N(C)C)cc2)cc1,39.3 kMESF (inactive)
16,Cc1ccc(S(=O)(=O)N2CCCC2C(=O)NCc2ccncc2)cc1 (centres undefined),32.1 kMESF (inactive)
17,Cc1[nH][nH]c(=O)c1C(c1ccc(-c2ccc(Cl)cc2)o1)c1c(C)[nH][nH]c1=O,39.2 kMESF (inactive)
18,C/C(=N\NC(=O)c1cc2ccccc2cc1O)c1ccccn1,47.9 kMESF (inactive)
19,O=C(CS(=O)c1ccccc1[N+](=O)[O-])Oc1ccc(Br)cc1 (centres undefined),42.8 kMESF (inactive)
20,Cc1cc(C)c2c(c1)/C(=C/C(=O)c1ccc(Br)s1)C(=O)N2,42.9 kMESF (inactive)
21,CC(=O)NN1C(=O)/C(=C/c2ccc(Br)o2)SC1=S,40.5 kMESF (inactive)
22,CCc1cccc2sc(N3CCN(C(=O)c4ccc([N+](=O)[O-])o4)CC3)nc12,12.4 kMESF (inactive)

row,Structure (SMILES),GFP fluorescence (kMESF)
1,Cc1cccc(C(=O)NNC(=S)NC(=O)c2ccccc2)c1,44.8 kMESF (inactive)
2,O=[N+]([O-])c1cc(O)c2ncccc2c1,42.7 kMESF (inactive)
3,CC[C@H](C)/C=C(C)/C=C/C1=CC2=C(Cl)C(=O)[C@@](C)(OC(C)=O)C(=O)C2=CO1,1.57 kMESF (inactive)
4,O=[N+]([O-])c1cnc(Sc2ccncn2)s1,33.9 kMESF (inactive)
5,Cc1cc(O)c(C(=O)/C=C/c2ccc(Cl)cc2)c(=O)o1,40.1 kMESF (inactive)
6,COc1ccc(C2=CC3=C(Br)C(=O)C(C)(O)C(=O)C3=CO2)cc1 (centres undefined),2.12 kMESF (inactive)
7,N/C(Cc1ccc(Cl)cc1)=N\OC(=O)c1ccccc1,23.8 kMESF (inactive)
8,COc1ccc([C@]2(C(C)C)ON(c3ccccc3C(F)(F)F)C2=O)cc1,38.8 kMESF (inactive)
9,Nc1ccc(Br)c2c1C(=O)c1ccccc1C2=O,27.1 kMESF (inactive)
10,Oc1c(Br)cc(Br)cc1C=Nc1ccc2c(c1)OCO2,42.9 kMESF (inactive)
11,COC(=O)CCC(=O)OC1(C)C(=O)C2=COC(c3ccc(OC)cc3)=CC2=C(Br)C1=O (centres undefined),7.85 kMESF (inactive)
12,CCN1/C(=C/C(C)=C/c2sc3ccccc3[n+]2CC)Sc2ccccc21,47.5 kMESF (inactive)
13,C=CCN1C(=O)/C(=C/c2cccs2)C(=O)NC1=S,20.4 kMESF (inactive)
14,CCCc1cc(NCc2ccccn2)n2nc(C)c(-c3ccccc3)c2n1,40.4 kMESF (inactive)
15,Cc1c(C)c2ccc(Oc3ccc([N+](=O)[O-])cc3C(F)(F)F)c(C)c2oc1=O,33.9 kMESF (inactive)
16,O=S(=O)(c1ccccc1)c1ccc(C(F)(F)F)cn1,43.8 kMESF (inactive)
17,Cc1cc2ccccn2c1C(=O)c1ccc([N+](=O)[O-])o1,26 kMESF (inactive)
18,COc1cc(/C=C2/C(=O)c3cccc([N+](=O)[O-])c3C2=O)c(Br)cc1O,32.9 kMESF (inactive)
19,COc1cc(NC(=O)c2ccccc2[N+](=O)[O-])ccc1NC(=O)c1cc2ccccc2o1,44.3 kMESF (inactive)
20,CCc1ccc(/C=C/C(=O)c2cc(Br)ccc(=O)c2O)cc1,22.2 kMESF (inactive)
21,Cc1ccc(S(=O)(=O)ON2C(=O)c3ccccc3C2=O)c(C)c1,33 kMESF (inactive)
22,COc1ccccc1N=Nc1ccc(O)c2ncccc12,49.5 kMESF (inactive)
